How the values were obtained:
[1] = system: zebrafish model of Dravet syndrome; settings: in vivo; cited from earlier work
DBA/1 mice = assay: Audiogenic seizures (AGSz) and S-IRA in DBA/1 mice, initial testing protocol (30 min, 12 h, 24 h, then 24 h intervals); type: in vivo, mouse
Text: These studies involved age matched (<80 days) male DBA/1 mice obtained from ENVIGO. Because there were no significant sex differences in the AGSz incidence (frequency), severity and S-IRA susceptibility in DBA/1 mice, males were used in this study. The mice were primed as described in previous studies (Faingold et al., (2010). Epilepsy Behav. 17:436-40; Faingold, et al. (2011) Brain Res. 1418:104-10; Faingold, et al., (2011) Epilepsy Behav. 22:186-90). Briefly, the mice were maintained on an ad libitum diet under a 12 h light-dark cycle in a temperature and humidity-controlled laboratory animal medicine facility. Starting at postnatal day 23-25, the mice were primed and tested for consistent susceptibility to AGSz and S-IRA by presenting an intense acoustic stimulus, as described previously.
The typical seizure semiology in the DBA/1 mice begins with a wild running phase, followed by clonic-tonic seizures and then tonic hind-limb extension that immediately leads to S-IRA during post-ictal behavioral depression (PID). The onset of S-IRA was visually determined by the occurrence of respiratory failure following loss of the righting reflex, relaxation of the pinnae, and then a generalized loss of muscle tone. These behaviors are reliable indicators of imminent sudden death in DBA mice. Resuscitation was initiated within 10 s after pinna relaxation and the generalized loss of muscle tone, which was effective in reversing S-IRA and reviving >90% of the mice. The mice were placed in a supine position, and a polyethylene tube (4.4 mm external diameter) connected to the outflow of a rodent respirator (Harvard Apparatus 680), pumping one cc of room air at 200 strokes/min, was the placed over the nostrils, which produced observable displacement of the chest. Respiratory support was provided until spontaneous breathing rhythm returned, which required ˜19 sec. The mice were monitored until they regained the righting reflex and then returned to their home cage. Video recordings of seizure behaviors and recovery were made for off-line evaluation and analysis, including the duration of PID, as indicated by time from muscle tone loss to return of the righting reflex.
The experiments herein disclosed examined the dose-response relationship of FFA (10-40 mg/kg, i.p.) on AGSz-induced behaviors in DBA/1 mice compared to vehicle (saline) treated control mice using different seizure-testing protocols. This initial protocol involved induction of AGSz at 30 min, 12 h and 24 h after drug administration, and subsequently at 24 h intervals until susceptibility to S-IRA returned. These studies were aimed at determining whether FFA can reduce the incidence (frequency) and severity of AGSz and susceptibility to S-IRA. […] To determine the effect of FFA on the severity of AGSz in DBA/1 mice, the ordinal scoring system of De Sarro and coworkers was used: no seizure=0; wild running=1; clonic seizure=2; tonic seizure=3; death/S-IRA=4. The median effective dose (ED50) for FFA for blocking AGSz at 30 min following the i.p. injection in DBA/1 mice was calculated using a second order polynomial equation (y=65.113x^2-2.0715x-63.578) that gave the best fit (R^2=0.9989).
The videos of seizure behaviors were analyzed visually, and the incidence (frequency) of AGSz, seizure severity, and incidence (frequency) of S-IRA following drug treatment were compared statistically to vehicle controls using the Chi-square, Mann-Whitney U or paired samples t-test with SPSS software. The ED50 was calculated using SigmaPlot 13 and Microsoft® Excel. The experimental protocols used in these studies were approved by the Laboratory Animal Care and Use Committee of Southern Illinois University School of Medicine, which are in accordance with National Institutes of Health guidelines for the care and use of laboratory animals. Measures to minimize animal usage as well as pain and discomfort were included in these procedures.

[2] = 20 and 40 mg/kg i.p., starting at 30 min, vs saline

## CCNC(C)Cc1cccc(C(F)(F)F)c1 (racemic) [FFA, 3-trifluoromethyl-N-ethylamphetamine]
[1]
  blocking electrographic and seizure-like behavioral activity: effective
DBA/1 mice; 10 mg/kg
  incidence (frequency) of S-IRA: not affected
  incidence of tonic seizures: not affected
DBA/1 mice; 10 mg/kg i.p.
  incidence (frequency) of AGSz: No significant effect
DBA/1 mice; 10 mg/kg, at 12 h
  AGSz severity: significantly reduced
  reduction of S-IRA: 36.4%
  reduction of tonic seizure: 54.6%
DBA/1 mice; 10 mg/kg, at 12 h, not statistically significant
  mice showing S-IRA blockade following tonic seizure (selective S-IRA block): 18.2%
DBA/1 mice; 15 mg/kg
  duration of AGSz blockade: < 24 h
  onset of AGSz blockade: 12 h
  tonic seizure blocking effect: delayed and transient
DBA/1 mice; 20 mg/kg
  return of maximal seizure severity: 24 h
DBA/1 mice; 40 mg/kg
  duration of seizure severity decrease: up to 8 days
  mice continuing to show reduced susceptibility to tonic AGSz and S-IRA for up to 8 days: 33.3%
  return of maximal seizure severity: 48 h
DBA/1 mice; 10 and 15 mg/kg
  time at which reduction in severity score occurred: 12 h
DBA/1 mice; 15, 20 and 40 mg/kg i.p. vs saline treated controls
  incidence (frequency) of AGSz: significantly reduce
DBA/1 mice; 15, 20 and 40 mg/kg i.p., beginning at 30 min, vs saline
  incidence (frequency) of S-IRA: significant reduction
DBA/1 mice; 20-40 mg/kg
  duration of reductions of seizure incidence, severity and S-IRA susceptibility: ≥ 48 h
DBA/1 mice; 20 and 40 mg/kg i.p., at 30 minutes, vs saline-treated controls
  susceptibility to AGSz: significantly reduced
DBA/1 mice; [2]
  median AGSz severity score: significant reduction
  tonic seizure incidence: significant reduction
DBA/1 mice; FFA-treated mice, initial protocol
  return of S-IRA susceptibility: ≤ 72 h
DBA/1 mice; Mus musculus, ip, 0.5 h, 30 min after i.p. injection, read-out: ED50 for blockade of AGSz
  ED50: 21.7 mg/kg
